The target in one data set is T1, human erythrocyte AChE (Homo sapiens, UniProt P22303).
T1 construct: purchased Sigma-Aldrich; Milamed, Perm, Russia (supplement); host or cells: human erythrocytes
Put plainly: biochemical. In kind it is biochemical. The conditions noted are these: for IC50: human erythrocyte AChE, mean ± SEM, n = 3.

A further data set addresses T2, equine serum BChE (Equus caballus, UniProt P81908).
T2 construct: purchased Sigma-Aldrich; Milamed, Perm, Russia (supplement); host or cells: horse serum
The data set is described as follows: biochemical.

Data set [1] has as its system porcine liver CES. The data set is described as follows: In vitro CES inhibition (4-NPA substrate). In kind it is biochemical. The conditions noted are these: for CES inhibition, %: % inhibition at 20 μM, n.a. = not active. As for the experimental part:
The esterase profile of the synthesized conjugates was determined. This included an assessment of their inhibition of cholinergic targets AChE and BChE along with a structurally related enzyme CES (EC 3.1.1.1), which hydrolyzes numerous ester‐containing drugs and is considered as an off‐target for anti‐AD agents.^[ [9], [40] ^] Human erythrocyte AChE, equine serum BChE, and porcine liver CES were used.^[ [40], [41], [42] ^]
Initially, we used a single concentration of 20 µM for all compounds.
^a All experiments were carried out in accordance with the standard protocols approved by IPAС RAS. Human erythrocyte AChE, equine serum BChE were purchased from Milamed (Perm, Russia). Porcine liver CES, substrates, and reference compounds were from Sigma-Aldrich (St. Louis, MO, USA). The activity of enzymes was measured spectrophotometrically, as described in detail in ^[1] using ATCh iodide, BTCh iodide, and 4-NPA as substrates for AChE, BChE, and CES, respectively. Experimental conditions: K,Na-phosphate buffer (100 mM), 25 °С, pH 7.5 for AChE and BChE and pH 8.0 for CES assay. Measurements were carried out on a FLUOStar Optima microplate reader (BMG Labtech, Ortenberg, Germany). Test compounds were dissolved in DMSO; final concentration of solvent in the incubation mixture was 2% (v/v).

Data set [2] deals with T3, PAS of Electrophorus electricus AChE (EeAChE) (Electrophorus electricus, UniProt O42275).
T3 construct: purchased Sigma-Aldrich type VI-S; host or cells: electric eel tissue
T3 sequence (O42275 24-633): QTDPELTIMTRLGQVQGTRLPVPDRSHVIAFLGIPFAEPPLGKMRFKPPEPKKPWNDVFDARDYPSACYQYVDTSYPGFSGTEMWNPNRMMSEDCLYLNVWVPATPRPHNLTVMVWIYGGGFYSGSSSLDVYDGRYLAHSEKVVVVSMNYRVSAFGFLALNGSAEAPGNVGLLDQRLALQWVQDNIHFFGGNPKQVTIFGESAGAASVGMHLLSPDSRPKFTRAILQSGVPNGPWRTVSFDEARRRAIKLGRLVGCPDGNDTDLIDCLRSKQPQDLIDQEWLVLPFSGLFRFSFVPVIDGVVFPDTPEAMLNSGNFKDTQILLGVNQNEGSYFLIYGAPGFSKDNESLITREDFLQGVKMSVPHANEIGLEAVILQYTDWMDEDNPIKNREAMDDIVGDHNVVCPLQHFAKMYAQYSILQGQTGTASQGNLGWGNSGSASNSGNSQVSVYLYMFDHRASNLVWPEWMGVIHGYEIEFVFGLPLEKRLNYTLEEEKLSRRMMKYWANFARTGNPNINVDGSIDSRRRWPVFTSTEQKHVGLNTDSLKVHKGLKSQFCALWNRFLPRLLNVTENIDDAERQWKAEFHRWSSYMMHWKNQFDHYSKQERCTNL
In kind it is binding. The conditions noted are these: 20 µM compound concentration. As for the experimental part:
The ability of the test compounds to competitively displace propidium was evaluated by the fluorescence method,^[ [65] ^] as described in detail in Makhaeva et al.^[ [66] ^] […] After 15 min of incubation of the test compounds at a concentration of 20 μM with a 7 μM solution of EeAChE in 1 mM Tris‐HCl buffer, pH 8.0, 25°C, propidium iodide (final concentration 8 μM) was added. Then, the solutions were incubated for 15 min and the fluorescence spectrum was recorded (530 nm (excitation) and 600 nm (emission)). […] Measurements were performed in triplicate on a FLUOStar Optima microplate reader (BMG LabTech).
The 7 μM EeAChE was incubated with the test compound at a concentration of 20 μM in 1 mM Tris-HCl buffer pH 8.0, 25 °C, for 15 min. After that, propidium iodide was added at final concentration of 8 μM. The samples were incubated for 15 min and the fluorescence spectrum (530 nm (excitation) and 600 nm (emission)) was taken. […] The measurements were carried out in triplicate on a FLUOStar Optima microplate reader. The degree of propidium displacement (% displacement) from the PAS of EeAChE was calculated by formula (1):
% Displacement = 100 – (IFAChE+ Propidium + inhibitor / IFAChE + Propidium) × 100 (1),
where IFAChE + Propidium is the fluorescence intensity of the propidium associated with AChE in the absence of the test compound (taken as 100%), and IFAChE + Propidium + inhibitor is the fluorescence intensity of the propidium associated with AChE in the presence of the test compound.

The target in the next data set is β‐amyloid (1–42) (Aβ42) (Homo sapiens, UniProt P05067). Put plainly: Inhibition of Aβ42 self-aggregation (thioflavin T fluorescence). Type of data set: biochemical. The conditions noted are these: Aβ42 50 µM, compound 100 µM; read-out: Inhibition of Aβ42 self‐aggregation, %. As for the experimental part:
Inhibition of Aβ42 self‐aggregation by test compounds was studied using the ThT fluorescence method^[ [67], [68] ^] with minor modifications as described in detail in Makhaeva et al.^[ [16] ^] Lyophilized hexamfluoroisopropanol‐pretreated Aβ42 (GenicBio Limited, 1 mg) was dissolved in DMSO to obtain a stable 500 μM solution. […] Myricetin and propidium iodide in the same concentration were used as references. […] Each assay was run in triplicate.
^c The inhibitory effect of the test compounds toward Aβ42 self-aggregation was determined using the thioflavin T (ThT) fluorescence method ^[5-7] with minor modifications as described in detail in ^[8]. Lyophilized HFIP-pretreated Aβ42 from BACHEM (Bubendorf, Switzerland) was used. […] Myricetin and propidium iodide were used as reference compounds (positive controls). Analyses were performed with a FLUOStar Optima microplate reader (LabTech, Ortenberg, Germany). The inhibition (%) of Aβ42 self-aggregation by the test compounds was calculated by the following equation: […]
where IFi and IFo are the fluorescence intensities obtained for Aβ42 in the presence and in the absence of inhibitor, respectively, after subtracting the fluorescence of respective blanks.

The nature of data set [3]: ABTS radical cation scavenging activity assay. The conditions noted are these: for IC50: concentration reducing ABTS radical by 50%, 1 h; for ABTS^•+‐scavenging activity, TEAC: relative to Trolox, 1 h incubation, n.a. = inactive.
Experimental: Data are given for 1 h of incubation of compounds with ABTS^•+. The AOA of the compounds was evaluated as Trolox equivalent antioxidant capacity (TEAC values) as the ratio of the slopes of the concentration–response curves, test compound/Trolox. All tests were performed at least in triplicate in three independent experiments. The IC50 values for the test compounds were also determined.
Data set [4] concerns HEK293T (human embryonic kidney) cells. Put plainly: Cytotoxicity, MTT assay, HEK293T. Type of data set: cell-based. As to conditions: HEK-293T, 24 h.
The test system of data set [5] is HepG2 cells (human hepatocellular carcinoma). Put plainly: Cytotoxicity, MTT assay, HepG2. In kind it is cell-based. On the technique in general: Formazan colour is commonly taken as a measure of viable cells.
The subject of data set [6] is SH‐SY5Y (human neuroblastoma) cells. The data set is described as follows: Cytotoxicity, MTT assay, SH-SY5Y. Type of data set: cell-based. As to conditions: 24 h.
For data set [7] the following is noted: cited from earlier work.
Data set [8] relates to porcine liver CES. Also noted: method as in PMID 35322571. As to conditions: % inhibition at 20 μM; cited from earlier work.
Details of data set [9]: method as in PMID 35322571. The conditions noted are these: cited from earlier work.
Where [10] appears, read: equine serum BChE, mean ± SEM, n = 3.
[11] abbreviates: MTT, mean ± SEM, n = 3, read-out: HEK293T IC50.
[12] abbreviates: HepG2, MTT, 24 h, mean ± SEM, n = 3, read-out: Hep G2 IC50.
Where [13] appears, read: MTT, mean ± SEM, n = 3, read-out: SH‐SY5Y IC50.

Read-outs that look alike come from different tables or passages of the source.

T1 sequence (P22303 32-617 isoform P22303-2 limits assumed): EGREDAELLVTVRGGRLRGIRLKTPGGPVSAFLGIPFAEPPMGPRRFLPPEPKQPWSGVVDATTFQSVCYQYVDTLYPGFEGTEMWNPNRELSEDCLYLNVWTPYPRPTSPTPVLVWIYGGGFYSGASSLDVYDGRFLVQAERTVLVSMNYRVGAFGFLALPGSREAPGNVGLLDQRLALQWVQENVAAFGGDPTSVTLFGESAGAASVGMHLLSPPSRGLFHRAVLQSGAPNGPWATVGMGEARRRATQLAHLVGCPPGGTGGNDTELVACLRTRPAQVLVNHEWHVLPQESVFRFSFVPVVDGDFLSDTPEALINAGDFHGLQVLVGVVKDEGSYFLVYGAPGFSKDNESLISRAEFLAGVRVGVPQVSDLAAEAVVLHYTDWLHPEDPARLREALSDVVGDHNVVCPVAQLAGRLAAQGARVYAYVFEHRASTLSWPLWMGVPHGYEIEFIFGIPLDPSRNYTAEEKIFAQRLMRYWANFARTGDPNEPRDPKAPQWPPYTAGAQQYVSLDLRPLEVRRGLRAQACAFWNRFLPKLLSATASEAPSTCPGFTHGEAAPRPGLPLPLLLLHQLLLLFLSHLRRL
Chain of β‐amyloid (1–42) (Aβ42) (P05067 672-713 limits assumed): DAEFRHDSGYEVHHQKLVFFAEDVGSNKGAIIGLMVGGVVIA
T2 sequence (P81908 whole entry): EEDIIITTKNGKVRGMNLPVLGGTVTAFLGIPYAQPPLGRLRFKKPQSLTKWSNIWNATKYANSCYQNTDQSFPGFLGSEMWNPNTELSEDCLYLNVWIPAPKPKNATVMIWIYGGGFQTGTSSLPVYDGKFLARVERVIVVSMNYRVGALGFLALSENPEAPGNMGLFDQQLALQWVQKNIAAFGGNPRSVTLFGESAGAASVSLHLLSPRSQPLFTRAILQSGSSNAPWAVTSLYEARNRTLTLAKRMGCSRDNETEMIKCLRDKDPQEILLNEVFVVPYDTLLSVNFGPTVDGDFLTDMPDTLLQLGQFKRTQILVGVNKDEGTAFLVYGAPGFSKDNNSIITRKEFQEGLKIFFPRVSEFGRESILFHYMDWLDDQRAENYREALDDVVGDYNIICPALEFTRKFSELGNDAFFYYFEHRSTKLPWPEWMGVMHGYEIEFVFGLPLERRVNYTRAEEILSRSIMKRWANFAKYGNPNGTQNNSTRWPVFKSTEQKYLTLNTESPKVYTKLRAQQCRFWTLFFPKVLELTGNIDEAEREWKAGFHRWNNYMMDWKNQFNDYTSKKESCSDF

Take `O=C(NCCCCCCCCNc1c2c(nc3c1CCC3)CCCC2)c1ccccc1O` [7c, N‐{8‐[(2,3,5,6,7,8‐hexahydro‐1H‐cyclopenta[b]quinolin‐9‐yl)amino]octyl}−2‐hydroxybenzamide]: the IC50 was determined as 1.53 ± 0.03 µM on human erythrocyte AChE; 0.011 ± 0.0001 µM at equine serum BChE; 0.0111 ± 0.0001 µM against equine serum BChE (setting [10]); 19.4 ± 0.6 µM in data set [3]; 3.62 ± 0.02 µM in [4] (setting [11]); 6.92 ± 1.22 µM in data set [5] (setting [12]). For the same compound, the IC50 in [6] (setting [13]) came to 7.99 ± 0.3 µM. Besides, the “BChE inhibition, times more effective than amiridine” value at equine serum BChE came out at 25 times. Further, the “Selectivity index IC50AChE/IC50BChE” value at equine serum BChE was 138. In addition, in the data set on porcine liver CES [1], the “CES inhibition, %” value was 32.9 ± 0.9%. Besides, the “Propidium displacement, %” value in [2] turned out to be 11.8 ± 0.8%. Besides, the inhibition at 100 µM on β‐amyloid (1–42) (Aβ42) turned out to be 74.1 ± 5.1%. In addition, the “ABTS^•+‐scavenging activity, TEAC” value in data set [3] worked out at 0.94 ± 0.04.
Regarding `Oc1ccccc1C=NCCCCNc1c2c(nc3c1CCC3)CCCC2` [9a, 2‐[({4‐[(2,3,5,6,7,8‐Hexahydro‐1H‐cyclopenta[b]quinolin‐9‐yl)amino]butyl}imino)methyl]phenol], the IC50 was 3.31 ± 0.02 µM against human erythrocyte AChE; 0.642 ± 0.007 µM against equine serum BChE (setting [10]); 26.6 ± 1.1 µM in data set [3]; 38.1 ± 2.1 µM in [4] (setting [11]); greater than 100 µM in data set [5] (setting [12]); 73.2 ± 0.9 µM in [6] (setting [13]). Also, the “Selectivity index IC50AChE/IC50BChE” value at equine serum BChE was 5.2. In addition, the “CES inhibition, %” value in the data set on porcine liver CES [1] was 10.5 ± 0.9%. Besides, the “Propidium displacement, %” value in [2] is 12.5 ± 1.1%. Besides, the inhibition at 100 µM on β‐amyloid (1–42) (Aβ42) came out at 20.1 ± 1.4%. Besides, the “ABTS^•+‐scavenging activity, TEAC” value stood at 0.65 ± 0.03 in data set [3] and 0.65 in data set [3] (listed as 9a a).
`Oc1ccccc1C=NCCCCCCCCNc1c2c(nc3c1CCC3)CCCC2` [9c, 2‐[({8‐[(2,3,5,6,7,8‐Hexahydro‐1H‐cyclopenta[b]quinolin‐9‐yl)amino]octyl}imino)methyl]phenol]: the IC50 at human erythrocyte AChE is 1.42 ± 0.14 µM; against equine serum BChE (setting [10]), 0.025 ± 0.001 µM; in data set [3], 29.6 ± 1.2 µM; in [4] (setting [11]), 22.2 ± 2.2 µM; in data set [5] (setting [12]), 95.9 ± 5.4 µM; in [6] (setting [13]) it was 63.5 ± 4.4 µM. Also, the “Selectivity index IC50AChE/IC50BChE” value at equine serum BChE turned out to be 56.8. The “CES inhibition, %” value in the data set with porcine liver CES [1] is reported as 25.8 ± 0.7%. Also, the “Propidium displacement, %” value in data set [2] came out at 11.6 ± 0.9%. The inhibition at 100 µM at β‐amyloid (1–42) (Aβ42) was found to be 71.7 ± 5.1%. The “ABTS^•+‐scavenging activity, TEAC” value in data set [3] was found to be 0.63 ± 0.02.
`Oc1ccccc1CNCCCCNc1c2c(nc3c1CCC3)CCCC2` [10a, 2‐[({4‐[(2,3,5,6,7,8‐Hexahydro‐1H‐cyclopenta[b]quinolin‐9‐yl)amino]butyl}amino)methyl]phenol]: the IC50 is 2.4 ± 0.15 µM against human erythrocyte AChE; 0.198 ± 0.019 µM on equine serum BChE (setting [10]); 10.1 ± 0.5 µM in [3]; 4.49 ± 0.27 µM in data set [4] (setting [11]); 27.6 ± 1.3 µM in data set [5] (setting [12]); 90.8 ± 1.3 µM in data set [6] (setting [13]). Also, the “Selectivity index IC50AChE/IC50BChE” value at equine serum BChE is 12.1. For the same compound, the “CES inhibition, %” value in the data set with porcine liver CES [1] is 6.2 ± 0.5%. Further, the “Propidium displacement, %” value in data set [2] came to 13.6 ± 0.9%. On β‐amyloid (1–42) (Aβ42), the inhibition at 100 µM amounted to 30.5 ± 2.4%. In addition, the “ABTS^•+‐scavenging activity, TEAC” value was determined as 1.5 ± 0.08 in data set [3] and 1.5 in data set [3] (listed as 10a as).
As for `Oc1ccccc1CNCCCCCCCCNc1c2c(nc3c1CCC3)CCCC2` [10c, 2‐[({8‐[(2,3,5,6,7,8‐Hexahydro‐1H‐cyclopenta[b]quinolin‐9‐yl)amino]octyl}amino)methyl]phenol], the “AChE inhibition, times more active than amiridine” value at human erythrocyte AChE was “about 17 times”. Also, the IC50 at human erythrocyte AChE came out at 0.265 ± 0.018 µM; against equine serum BChE (setting [10]) it was 0.022 ± 0.0002 µM; in the data set with porcine liver CES [1] (porcine liver CES) it was 10.5 ± 0.1 µM; in data set [3], 10.1 ± 0.6 µM; in data set [4] (setting [11]) it was 2.33 ± 0.15 µM; in [5] (setting [12]), 4.19 ± 0.2 µM. Further, the IC50 in data set [6] (setting [13]) was 10.9 ± 0.6 µM. For the same compound, the “Selectivity index IC50AChE/IC50BChE” value at equine serum BChE turned out to be 12.0. The “CES inhibition, %” value in the data set on porcine liver CES [1] was 56.3±0.3 (IC50= 10.5±0.1 µM) %. The “Propidium displacement, %” value in [2] is 15.8 ± 1.1%. The inhibition at 100 µM on β‐amyloid (1–42) (Aβ42) amounted to 96.7 ± 6.7%. The “ABTS^•+‐scavenging activity, TEAC” value in data set [3] is given as 1.48 ± 0.05.
Turning to `Cl.Nc1c2c(nc3c1CCC3)CCCC2.O` [Amiridine, 9‐amino‐2,3,5,6,7,8‐hexahydro‐1H‐cyclopenta[b]quinoline monohydrochloride monohydrate, reference compound], the “ABTS^•+‐scavenging activity, TEAC” value in data set [3] is listed as 0.040 ± 0.003. The IC50 in data set [4] (read-out: HEK293T IC50) is 106 ± 3 µM; in data set [5] (HepG2, 24 h, read-out: Hep G2 IC50), 224 ± 11.2 µM; in data set [6] (read-out: SH‐SY5Y IC50), 135 ± 18.2 µM. The “pKa of the endocyclic nitrogen atom” value in data set [7] is listed as 9.52.
For the compound `CCCCCCNC(=O)c1ccccc1O` [compound 14, N‐hexylsalicylamide], the “CES inhibition, %” value in the data set on porcine liver CES [8] is recorded as 4.9 ± 1.0%. Moreover, the “ABTS^•+‐scavenging activity, TEAC” value in data set [9] is given as 0.39 ± 0.04. The IC50 in data set [9] (read-out: ABTS^•+‐scavenging activity, IC50) is 46.5 ± 2.3 µM.

One may read the IC50 as the concentration that gives 50% inhibition. Usually inhibition stands for the relative decrease from the control value, in per cent.

These data come from PMC11650361 (Archiv Der Pharmazie, 2024).
